From US4259235A, “Tricyclic nitrogenous compounds having string plant growth regulating properties” (BASF Aktiengesellschaft, priority 1977, dated 1981)

What was measured:
spring rye [1] = assay: Growth height of spring rye, soil treatment, Example 11; assay type: in vivo, spring rye ("Petkuser" variety)
Description: (§1) The test plants--spring wheat ("Opal" variety), spring barley ("Union" variety) and spring rye ("Petkuser" variety)--were grown under greenhouse conditions in plastic dishes 11.5 cm in diameter, in a peat substrate provided with sufficient nutrients.
(§2) The soil (preemergence) treatment was effected after sowing by pouring aqueous formulations of the active ingredients, at four application rates, onto the surface of the substrate.
(§3) The shortening effect caused by the compounds was shown by measurements of the height of the plants at the end of the experiment.
(§4) The prior art compound N,N,N-trimethyl-N-β-chloroethylammonium chloride (CCC, German Printed Application DAS No. 1,294,734) was used for comparison purposes.

spring wheat = assay: Growth height of spring wheat, soil (preemergence) treatment, Example 9; assay type: in vivo, spring wheat ("Opal" variety); settings: 30 days
Description: (§5) Spring wheat of the "Opal" variety and spring barley of the "Union" variety were grown in the winter half of the year under greenhouse conditions in plastic dishes 11.5 cm in diameter, in a peat substrate provided with sufficient nutrients.
(§6) The reductions in growth height caused by the treatment were determined by measuring the height of the plants at the end of the experiment after 30 days' growth, and comparing it with that of untreated plants.

spring barley [2] = assay: Growth height of spring barley, soil (preemergence) treatment, Example 9; assay type: in vivo, spring barley ("Union" variety); settings: 30 days
Description: as §5, §6

spring barley [3] = assay: Growth height of spring barley, leaf treatment, Example 10; assay type: in vivo, spring barley ("Union" variety)
Description: Spring wheat ("Opal" variety) and spring barley ("Union" variety) were grown under greenhouse conditions in plastic dishes 11.5 cm in diameter, in a peat substrate provided with sufficient nutrients. For the soil (preemergence) treatment, the active ingredients were poured, at two application rates, as aqueous formulations onto the surface of the substrate after sowing.
Leaf treatment was effected by spraying the plants at a growth height of 10 cm with aqueous formulations of the active ingredients at two application rates.
The plant height was measured at the end of the experiment. The figures obtained show the shortening effect of the active ingredients under investigation. The prior art compound β-chloroethylphosphonic acid (Ethephon, German Printed Application DAS No. 1,667,968) was used for comparison purposes.

spring barley [4] = assay: Growth height of spring barley, soil treatment, Example 11; assay type: in vivo, spring barley ("Union" variety)
Description: as §1, §2, §3, §4

spring barley [5] = assay: Growth height of spring barley, leaf treatment, Example 11; assay type: in vivo, spring barley ("Union" variety)
Description: as §1
(§7) Leaf treatment was effected by spraying the plants at a growth height of 11 cm with aqueous formulations of the active ingredients, at three application rates.
as §3, §4

spring rye [6] = assay: Growth height of spring rye, leaf treatment, Example 11; assay type: in vivo, spring rye ("Petkuser" variety)
Description: as §1, §7, §3, §4

potted vines = assay: Tolerance by potted vines in greenhouse; spray application; assay type: in vivo
Description: Plastic flowerpots having a volume of 300 cm^3 were filled with a sandy loam and the test plants placed therein (either as seed, as vegetatively reproduced species, or as potted plants, e.g., vines). For preemergence treatment, the active ingredients were suspended or emulsified in water as vehicle and sprayed onto the surface of the soil immediately after sowing by means of finely distributing nozzles. The potted vines were treated by spraying them with the correspondingly diluted liquor. For postemergence treatment, the agents were, as stated above, sprayed in water onto the leaves of the test plants, some liquor also falling onto the soil. In some special cases, solid active ingredients were first dissolved in dimethylformamide and then applied in a total liquor amount of 400 liters of water per hectare. For the postemergence treatment, the plants were first grown to a height of from 3 to 10 cm before being treated. With grasses, the first growth was cut, and the new growth treated 2 to 3 days after cutting. The temperature requirements of the plants were taken into account by placing them in cooler or warmer sections of the greenhouse. The experiments were run for from 4 to 6 weeks, during which time the plants were tended and their reaction to the various treatments was assessed.
The application rates are given in kg/ha of active ingredient, regardless of the method of application and the amount of water used.
A 0 to 100 scale was used for the evaluation, 0 denoting normal emergence or no damage (or no inhibition), and 100 denoting non-emergence or complete destruction of the plants. A distinction should be made in the influence on growth between desired changes without any appreciable disadvantageous phytotoxic effects (e.g., purely growth-regulating effects) and those of a phytotoxic herbicical character.

**Q.** Which Plant height (spring rye [1]; 0.75 kg/ha) does the source give for `Clc1ccc(NC2C(Cl)C3CC2C2N=NC32)cc1` (stereo not drawn) [drawing 421] here?
**A.** Its Plant height is 28.0 cm.

**Q.** What about the “Plant height, % of untreated control” value (spring rye [1]; 0.75 kg/ha) of the same compound?
**A.** The value was 86.7%.

**Q.** And the Plant height (spring rye [1]; 1.50 kg/ha)?
**A.** Its Plant height is 27.0 cm.

**Q.** And the “Plant height, % of untreated control” value (spring rye [1]; 1.50 kg/ha)?
**A.** The value was 83.5%.

**Q.** And the Plant height (spring rye [1]; 3.00 kg/ha)?
**A.** The Plant height was 25.0 cm.

**Q.** What about the “Plant height, % of untreated control” value (spring rye [1]; 3.00 kg/ha) of the same compound?
**A.** Its value is 77.4%.

**Q.** What about the Plant height (spring rye [1]; 6.00 kg/ha) of the same compound?
**A.** Its Plant height is 23.0 cm.

**Q.** And the “Plant height, % of untreated control” value (spring rye [1]; 6.00 kg/ha)?
**A.** Its value is 71.2%.

**Q.** For `C1C2C3N=NC3C1C1OC21` (stereo not drawn) [drawing 388], which Plant height (spring wheat; 3 kg/ha) is on record?
**A.** The Plant height was 21.5 cm.

**Q.** What about the “Plant height, % of untreated control” value (spring wheat; 3 kg/ha) of the same compound?
**A.** Its value is 71.7%.

**Q.** And the Plant height (spring wheat; 12 kg/ha)?
**A.** Its Plant height is 12.5 cm.

**Q.** What about the “Plant height, % of untreated control” value (spring wheat; 12 kg/ha) of the same compound?
**A.** Its value is 41.7%.

**Q.** `c1ccc(C2=NOC3C4CC(C5N=NC45)C23)cc1` (stereo not drawn) [drawing 391] was tested. Which Plant height (spring barley [2]; 3 kg/ha) did it give?
**A.** Its Plant height is 24.5 cm.

**Q.** What about the “Plant height, % of untreated control” value (spring barley [2]; 3 kg/ha) of the same compound?
**A.** Its value is 75.9%.

**Q.** And the Plant height (spring barley [2]; 12 kg/ha)?
**A.** The Plant height was 16.0 cm.

**Q.** And the “Plant height, % of untreated control” value (spring barley [2]; 12 kg/ha)?
**A.** Its value is 49.5%.

**Q.** Which results are given for `Clc1ccc(C2=NOC3C4CC(C5N=NC45)C23)cc1` (stereo not drawn) [drawing 414]?
**A.** Plant height (spring barley [3]; 1.5 kg/ha): 26.0 cm; Plant height, % of untreated control (spring barley [3]; 1.5 kg/ha): 92.9%; Plant height (spring barley [3]; 6.0 kg/ha): 24.5 cm; Plant height, % of untreated control (spring barley [3]; 6.0 kg/ha): 87.5%

**Q.** For `c1ccc(C2=NNC3C4CC(C5N=NC45)C23)cc1` (stereo not drawn) [drawing 417], which Plant height (spring barley [4]; 0.75 kg/ha) is on record?
**A.** The Plant height was 32.0 cm.

**Q.** And the “Plant height, % of untreated control” value (spring barley [4]; 0.75 kg/ha)?
**A.** Its value is 97.6%.

**Q.** What about the Plant height (spring barley [4]; 1.50 kg/ha) of the same compound?
**A.** The Plant height was 28.0 cm.

**Q.** And the “Plant height, % of untreated control” value (spring barley [4]; 1.50 kg/ha)?
**A.** The value was 85.4%.

**Q.** And the Plant height (spring barley [4]; 3.00 kg/ha)?
**A.** The Plant height was 27.0 cm.

**Q.** What about the “Plant height, % of untreated control” value (spring barley [4]; 3.00 kg/ha) of the same compound?
**A.** The value was 82.3%.

**Q.** And the Plant height (spring barley [4]; 6.00 kg/ha)?
**A.** The Plant height was 23.0 cm.

**Q.** What about the “Plant height, % of untreated control” value (spring barley [4]; 6.00 kg/ha) of the same compound?
**A.** The value was 70.1%.

**Q.** Which results are given for `c1ccc(C2=NOC3C4CC(C5N=NC45)C23)cc1` (stereo not drawn) [drawing 389]?
**A.** Plant height (spring wheat; 3 kg/ha): 20.0 cm; Plant height, % of untreated control (spring wheat; 3 kg/ha): 66.7%; Plant height (spring wheat; 12 kg/ha): 14.0 cm; Plant height, % of untreated control (spring wheat; 12 kg/ha): 46.7%

**Q.** Which results are given for `Clc1ccc(NC2C(Cl)C3CC2C2N=NC32)cc1` (stereo not drawn) [drawing 419]?
**A.** Plant height (spring barley [5]; 0.75 kg/ha): 26.0 cm; Plant height, % of untreated control (spring barley [5]; 0.75 kg/ha): 93.5%; Plant height (spring barley [5]; 1.50 kg/ha): 25.5 cm; Plant height, % of untreated control (spring barley [5]; 1.50 kg/ha): 91.7%; Plant height (spring barley [5]; 3.00 kg/ha): 23.5 cm; Plant height, % of untreated control (spring barley [5]; 3.00 kg/ha): 84.5%

**Q.** How did the Plant height (spring barley [2]; 3 kg/ha) turn out when `C1C2C3N=NC3C1C1OC21` (stereo not drawn) [drawing 390] was run?
**A.** Its Plant height is 25.0 cm.

**Q.** What about the “Plant height, % of untreated control” value (spring barley [2]; 3 kg/ha) of the same compound?
**A.** The value was 77.4%.

**Q.** And the Plant height (spring barley [2]; 12 kg/ha)?
**A.** The Plant height was 14.0 cm.

**Q.** What about the “Plant height, % of untreated control” value (spring barley [2]; 12 kg/ha) of the same compound?
**A.** The value was 43.3%.

**Q.** How did the Plant height (spring rye [6]; 0.75 kg/ha) turn out when `c1ccc(C2N=NC3C4CC(C5N=NC45)C23)cc1` (stereo not drawn) [drawing 422] was run?
**A.** The Plant height was 23.0 cm.

**Q.** What about the “Plant height, % of untreated control” value (spring rye [6]; 0.75 kg/ha) of the same compound?
**A.** Its value is 80.7%.

**Q.** What about the Plant height (spring rye [6]; 1.50 kg/ha) of the same compound?
**A.** The Plant height was 20.5 cm.

**Q.** And the “Plant height, % of untreated control” value (spring rye [6]; 1.50 kg/ha)?
**A.** Its value is 71.9%.

**Q.** And the Plant height (spring rye [6]; 3.00 kg/ha)?
**A.** Its Plant height is 20.5 cm.

**Q.** And the “Plant height, % of untreated control” value (spring rye [6]; 3.00 kg/ha)?
**A.** The value was 71.9%.

**Q.** Which results are given for `CCNc1nc(Cl)nc(NCC)n1`?
**A.** Potted vines - leaf damage (potted vines; 4.0 and 8.0 kg/ha): chlorotic yellow- ing, necroses; Change in shoot growth (potted vines; 4.0 kg/ha): 17.3 cm; Change in shoot growth (potted vines; 8.0 kg/ha): 10.3 cm
